# Data: publication PMC5434815, “The role of histidines in amyloid β fibril assembly” (Febs Letters, 2017)
# Experiments:
# Amyloid β 1–40 H6A [1] = assay: SPR; preformed fibrils immobilised on a CM5 chip by amine coupling (3500 RU), probed with monomers of the same variant; monomer onto fibril end; 25 °C, 20 μL/min, 20 mM acetate pH 5.5, 150 mM NaCl; slow phase of dissociation only; KD = RD/RA x KD of Aβ1-40 wt (1 nM, from earlier work)
# Amyloid β 1–40 H6A [2] = assay: SPR; preformed fibrils immobilised on a CM5 chip by amine coupling (3500 RU), probed with monomers of the same variant; monomer onto fibril end; 25 °C, 20 μL/min, 20 mM phosphate pH 7.4, 150 mM NaCl; slow phase of dissociation only; KD = RD/RA x KD of Aβ1-40 wt (100 nM, from earlier work)
# [3] = tested on: immobilised Aβ fibrils / fibrillar end; assay: Fibril stability (KD, RD/RA, potentiation factor) from SPR association and dissociation; type: binding; settings: 25 °C, relative to Aβ1–40 wt
# Description: (§1) The interaction study between the fibrillar form of Aβ and its monomeric form was performed using a BIAcore® 3000 biosensor (GE Healthcare®, Uppsala, Sweden) equipped with a CM5 sensor chip (GE Healthcare®). First, the fibrillar form of Aβ was immobilised at a density of 3500 response units (RUs) on the dextran layer of the chip using standard amino coupling reagents at pH 4.0. All SPR experiments were performed at 25 °C at a flow rate of 20 μL·min^−1 in either a 20 mM phosphate buffer (pH 7.4) or 20 mM acetate buffer (pH 5.5). All experiments were performed in the presence of 150 mM NaCl, which represents a physiological ion‐strength.
# (§2) All sensograms were corrected for nonspecific interactions using a reference surface according to standard procedures 16.
# While a simple interaction between, for example, a receptor and ligand can easily be determined through saturation experiments, this cannot be done with polymers since they, per definition, cannot be saturated.
# This problem can, however, be circumvented by defining the concentration of free monomers where the fibrils are at steady state, i.e. the concentration of free monomers where neither association nor dissociation can be detected. We have previously shown that the KD for Aβ1–40 wt at neutral pH is around 100 nM and around 1 nM at pH 5.5 11, 13. The KD at neutral pH has also been investigated by Hasegawa and co‐workers 14 with similar results. All figures used here are therefore given as relative values to the KD for Aβ1–40 wt corresponding to 100 nM at neutral pH and 1 nM at pH 5.5.
# Multiplying the relative RD/RA with the KD for Aβ 1–40 wt will then give the KD for the histidine derivatives.
# [4] = tested on: corresponding immobilised fibrils (fibrillar form of Aβ); assay: SPR dissociation rate k(off) of Aβ fibrils, slow phase, relative to Aβ1–40 wt; type: binding; settings: 150 mM NaCl, 25 °C, after 2 μM monomer injection, slow phase, points before 100 s excluded, one exponential decay, Aβ1–40 wt = 1
# Description: (§3) Recombinant variants of Aβ1–40, Aβ1–40 H6A, Aβ1–40 H13A, Aβ1–40 H14A and Aβ1–40 H6A, H13A, H14A were obtained from AlexoTech (Umeå, Sweden). All lyophilised peptides were solubilised in 20 mM NaOH and separated by size‐exclusion chromatography (Superdex 10/300, GE Life Science, Uppsala, Sweden) in PBS with 2 mM EDTA, 5 mM NaOH and 150 mM NaCl. The pH of all purified peptide solutions was adjusted using a stock solution of phosphate or acetate buffer to give a final buffer concentration corresponding to 20 mM phosphate (pH 7.4) or acetate (pH 5.5) and 150 mM NaCl.
# as §1, §2
# Note that the dissociation phase exposes a biphasic curvature. This is highly representative and frequently observed when performing these kinds of experiments. […] All analyses of decay rates within this work are therefore exclusively focused on the slower second phase of dissociation.
# In contrast to the association rate, kon, the rate of dissociation, koff, is independent of the concentration of monomers. Subsequent to probing, the immobilised fibrils with free monomers, the rate of dissociation can be seen as a decrease in the signal over time.
# Because the latter part of the curve, representing the slower phase of dissociation (indicated by arrow 3 Fig. 1), strongly dominates the interaction strength, we have exclusively focused on this part, and no points before 100 s were included in the curve. The dissociation curve could then be fitted to a one exponential decay.
# [5] = tested on: corresponding immobilised fibrils (fibrillar form of Aβ); assay: SPR association rate k(on) of Aβ monomers onto immobilised fibrils, relative to Aβ1–40 wt; type: binding; settings: 150 mM NaCl, 25 °C, 20 μL·min^−1, CM5 chip, fibrils at 3500 RU, end state after 60 s injection, Aβ1–40 wt = 1
# Description: as §3, §1
# Due to the polymeric nature of amyloid fibrils, the covalent immobilisation on the sensor chip, likely only occurs in minor fraction of the accessible amino groups. This treatment is therefore not anticipated to influence the overall incorporation of monomers in a significant manner. However, the influence from using immobilised fibrils or the dextran layer cannot be fully excluded and should therefore be disclosed.
# as §2
# Probing free monomeric Aβ against immobilised fibrils using SPR is a frequently used technique for measuring the intrinsic kinetic properties of Aβ polymerisation 11, 14, 17, 18, 19.
# Fibrils from recombinant variants of Aβ1–40, Aβ1–40 H6A, Aβ1–40 H13A, Aβ1–40 H14A and Aβ1–40 H6A, H13A, H14A were prepared by prolonged incubation in either PBS (pH 7.4) or acetate buffer pH 5.5 containing 150 mM NaCl. Fibrils immobilised on a CM5 chip were then probed with their monomeric counterpart at different concentrations of Aβ monomers and analysed by SPR. Samples were injected for exactly 60 s and the maximal value at the end state of each injection (indicated by arrow 1 in Fig. 1A) was plotted as a function of the monomeric concentration, Fig. 2. This generates an association rate at each point of measurement. A guideline is given in the figures to illustrate the linearity.
# By comparing the rate between the different Aβ variants, it is possible to determine relative differences in k(on).
# [6] = target: Amyloid β 1–40 H6A, H13A, H14A; assay: SPR; preformed fibrils immobilised on a CM5 chip by amine coupling (3500 RU), probed with monomers of the same variant; monomer onto fibril end; 25 °C, 20 μL/min, 20 mM acetate pH 5.5, 150 mM NaCl; slow phase of dissociation only; KD = RD/RA x KD of Aβ1-40 wt (1 nM, from earlier work)
# [7] = target: Amyloid β 1–40 H6A, H13A, H14A; assay: SPR; preformed fibrils immobilised on a CM5 chip by amine coupling (3500 RU), probed with monomers of the same variant; monomer onto fibril end; 25 °C, 20 μL/min, 20 mM phosphate pH 7.4, 150 mM NaCl; slow phase of dissociation only; KD = RD/RA x KD of Aβ1-40 wt (100 nM, from earlier work)
Substance,"RD/RA ([3]; pH 5.5, 150 mM NaCl)","RD/RA ([3]; pH 7.4, 150 mM NaCl)","RD, relative dissociation (k(off) versus Aβ1–40 wt) ([4]; pH 5.5, 20 mM acetate)","RD, relative dissociation (k(off) versus Aβ1–40 wt) ([4]; pH 7.4, 20 mM phosphate)","RA, relative association (k(on) versus Aβ1–40 wt) ([5]; pH 5.5, 20 mM acetate)","RA, relative association (k(on) versus Aβ1–40 wt) ([5]; pH 7.4, 20 mM phosphate)",further results
Amyloid β 1–40 H6A (peptide),,,,,,,Kd (Amyloid β 1–40 H6A [1]): 1.43 nM; RA (association rate relative to Aβ1-40 wt) (Amyloid β 1–40 H6A [1]): 1.94; RD (dissociation rate relative to Aβ1-40 wt) (Amyloid β 1–40 H6A [1]): 2.78; Kd (Amyloid β 1–40 H6A [2]): 427 nM; RA (association rate relative to Aβ1-40 wt) (Amyloid β 1–40 H6A [2]): 0.45; RD (dissociation rate relative to Aβ1-40 wt) (Amyloid β 1–40 H6A [2]): 1.92
Aβ1–40 H6A,1.43,4.27,2.78,1.92,1.94,0.45,
"Aβ1–40 H6A, H13A, H14A: recombinant Aβ1–40 variant where all three histidines have been exchanged for alanine (DAEFRADSGYEVAAQKLVFFAEDVGSNKGAIIGLMVGGVV; Amyloid-beta protein 40; UniProt P05067 672-711, looked up, variant H6A H13A H14A)",5.31,12.27,8.33,2.70,1.57,0.22,
"Amyloid β 1–40 H6A, H13A, H14A (peptide)",,,,,,,Kd [6]: 5.31 nM; RA (association rate relative to Aβ1-40 wt) [6]: 1.57; RD (dissociation rate relative to Aβ1-40 wt) [6]: 8.33; Kd [7]: 1230 nM; RA (association rate relative to Aβ1-40 wt) [7]: 0.22; RD (dissociation rate relative to Aβ1-40 wt) [7]: 2.7
Aβ1–40 H13A,2.11,7.16,2.13,2.22,1.01,0.31,
